Measured values as given in ChEMBL document CHEMBL5579895, “Discovery of TYRA-300: First Oral Selective FGFR3 Inhibitor for the Treatment of Urothelial Cancers and Achondroplasia” (J Med Chem, 2024).
In brackets after ≈: the same amount, converted by molar mass.

Tests used:
[1] = AUC (last) in Sprague-Dawley rat at 10 mg/kg, po measured for 24 hrs by LC-MS/MS analysis; type: ADME, organism-based; conditions: in vivo
[2] = Oral bioavailability in Sprague-Dawley rat at 10 mg/kg measured for 24 hrs by LC-MS/MS analysis; type: ADME, organism-based; conditions: in vivo
[3] = Clearance in Sprague-Dawley rat at 2 mg/kg, iv measured for 24 hrs by LC-MS/MS analysis; type: ADME, organism-based; conditions: in vivo
[4] = Volume of distribution in Sprague-Dawley rat at 2 mg/kg, iv measured for 24 hrs by LC-MS/MS analysis; type: ADME, organism-based; conditions: in vivo
[5] = Stability in rat hepatocytes assessed as half life at 1 uM incubated upto 180 mins by LC-MS/MS analysis; type: ADME, cell-based, Hepatocyte
[6] = system: RT112/84; assay: animal or person; type: functional, Homo sapiens; conditions: Mus musculus, RT112/84, 504 h, route po, time 21 day, read-out: TGI
Description: Antitumor activity against human RT112/84 cells harboring FGFR3/TACC3 fusion xenografted in Balb/c nude mouse model at 12.5 mg/kg, po bid treated for 21 days relative to control

[7] = Oral bioavailability in monkey at 10 mg/kg measured for 24 hrs by LC-MS/MS analysis; type: ADME, organism-based, Macaca mulatta; conditions: rhesus monkey, in vivo
[8] = system: RT112/84; assay: animal or person; type: functional, Homo sapiens; conditions: Mus musculus, RT112/84, 504 h, route po, time 21 day, read-out: TGI; remark: listed apart in the source
Description: Antitumor activity against human RT112/84 cells harboring FGFR3 V555M mutant xenografted in Balb/c nude mouse model at 12.5 mg/kg, po bid treated for 21 days relative to control

[9] = Volume of distribution in monkey at 1 mg/kg, iv measured for 24 hrs by LC-MS/MS analysis; type: ADME, organism-based, Macaca mulatta; conditions: rhesus monkey, in vivo
[10] = Inhibition of recombinant FGFR3/BAIAP2L1 (unknown origin) transduced in mouse BaF3 cells incubated for 48 hrs by Cell Titer Glo assay; type: cell-based; conditions: BaF3, 48 h
[11] = Tmax in dog at 10 mg/kg, po measured for 24 hrs by LC-MS/MS analysis; type: ADME, organism-based, Canis lupus familiaris; conditions: in vivo
[12] = Half life in monkey at 1 mg/kg, iv measured for 24 hrs by LC-MS/MS analysis; type: ADME, organism-based, Macaca mulatta; conditions: rhesus monkey, in vivo
[13] = Clearance in monkey at 1 mg/kg, iv measured for 24 hrs by LC-MS/MS analysis; type: ADME, organism-based, Macaca mulatta; conditions: rhesus monkey, in vivo
[14] = Stability in human hepatocytes assessed as half life at 1 uM incubated upto 180 mins by LC-MS/MS analysis; type: ADME, cell-based, Hepatocyte
[15] = molecular target: T1, Fibroblast growth factor receptor 3 (Homo sapiens, UniProt P22607); assay: Inhibition of wild-type FGFR3 (unknown origin) by mobility shift assay
[16] = Cmax in monkey at 10 mg/kg, po measured for 24 hrs by LC-MS/MS analysis; type: ADME, organism-based, Macaca mulatta; conditions: rhesus monkey, in vivo
[17] = molecular target: Vascular endothelial growth factor receptor 1 (Homo sapiens, UniProt P17948); assay: Inhibition of human FLT1 by KINOMEscan analysis
[18] = molecular target: Fibroblast growth factor receptor 3 (Homo sapiens, UniProt P22607, V555M); assay: Inhibition of FGFR3 V555M mutant (unknown origin) by mobility shift assay
[19] = system: RT112/84; assay: cells; type: functional, cell-based; conditions: Homo sapiens
Description: Inhibition of cell viability in human RT112/84 cells harboring FGFR3/TACC3 fusion incubated for 72 to 120 hrs by Cell Titer Glo assay

[20] = molecular target: Leukocyte tyrosine kinase receptor (Homo sapiens, UniProt P29376); assay: Inhibition of human LTK by KINOMEscan analysis
[21] = Apparent permeability in MDCK-MDR1 cells; type: ADME, cell-based, Canis lupus familiaris; conditions: dog
[22] = Thermodynamic solubility in FaSSGF; type: ADME; conditions: read-out: Therm_solubility
[23] = system: DMS-114; assay: Inhibition of cell viability in human DMS-114 cells harboring FGFR1-amplification incubated for 72 to 120 hrs by Cell Titer Glo assay; type: functional, cell-based
[24] = AUC (last) in monkey at 1 mg/kg, iv measured for 24 hrs by LC-MS/MS analysis; type: ADME, organism-based, Macaca mulatta; conditions: rhesus monkey, in vivo
[25] = Half life in dog at 10 mg/kg, po measured for 24 hrs by LC-MS/MS analysis; type: ADME, organism-based, Canis lupus familiaris; conditions: in vivo
[26] = Volume of distribution in dog at 1 mg/kg, iv measured for 24 hrs by LC-MS/MS analysis; type: ADME, organism-based, Canis lupus familiaris; conditions: in vivo
[27] = AUC (last) in dog at 10 mg/kg, po measured for 24 hrs by LC-MS/MS analysis; type: ADME, organism-based, Canis lupus familiaris; conditions: in vivo
[28] = molecular target: T1, Fibroblast growth factor receptor 3; assay: Inhibition of wild-type FGFR3 (unknown origin) by NanoBRET assay
[29] = Apparent permeability in human Caco-2 cells; type: ADME, cell-based
[30] = molecular target: Tyrosine-protein kinase JAK2 (Homo sapiens, UniProt O60674); assay: Inhibition of human JAK2 by KINOMEscan analysis
[31] = molecular target: Fibroblast growth factor receptor 3 (Homo sapiens, UniProt P22607, V555L); assay: Inhibition of FGFR3 V555L mutant (unknown origin) by mobility shift assay
[32] = molecular target: Tyrosine-protein kinase JAK3 (Homo sapiens, UniProt P52333); assay: Inhibition of human JAK3 by KINOMEscan analysis
[33] = Clearance in dog at 1 mg/kg, iv measured for 24 hrs by LC-MS/MS analysis; type: ADME, organism-based, Canis lupus familiaris; conditions: in vivo
[34] = Half life in dog at 1 mg/kg, iv measured for 24 hrs by LC-MS/MS analysis; type: ADME, organism-based, Canis lupus familiaris; conditions: in vivo
[35] = molecular target: Fibroblast growth factor receptor 3 (Homo sapiens, UniProt P22607, K650E); assay: Inhibition of FGFR3 K650E mutant (unknown origin) by mobility shift assay
[36] = AUC (last) in dog at 1 mg/kg, iv measured for 24 hrs by LC-MS/MS analysis; type: ADME, organism-based, Canis lupus familiaris; conditions: in vivo
[37] = system: RT-4; assay: Inhibition of cell viability in human RT-4 cells harboring FGFR3/TACC3 fusion incubated for 72 to 120 hrs by Cell Titer Glo assay; type: functional, cell-based
[38] = Inhibition of cell viability in human UMUC14 cells harboring FGFR3 S249C mutant incubated for 72 to 120 hrs by Cell Titer Glo assay; type: functional, cell-based
[39] = molecular target: Fibroblast growth factor receptor 2 (Homo sapiens, UniProt P21802); assay: Inhibition of human FGFR2 by KINOMEscan analysis
[40] = system: KG-1; assay: Inhibition of cell viability in human KG-1 cells harboring FGFR1-fusion incubated for 72 to 120 hrs by Cell Titer Glo assay; type: functional, cell-based
[41] = Tmax in monkey at 10 mg/kg, po measured for 24 hrs by LC-MS/MS analysis; type: ADME, organism-based, Macaca mulatta; conditions: rhesus monkey, in vivo
[42] = Stability in human hepatocytes assessed as intrinsic clearance at 1 uM incubated upto 180 mins by LC-MS/MS analysis; type: ADME, cell-based, Hepatocyte; conditions: read-out: CLH
[43] = Half life in Sprague-Dawley rat at 2 mg/kg, iv measured for 24 hrs by LC-MS/MS analysis; type: ADME, organism-based; conditions: in vivo
[44] = molecular target: Voltage-gated inwardly rectifying potassium channel KCNH2 (Homo sapiens, UniProt Q12809); assay: Inhibition of hERG expressed in CHO cells by automated patch-clamp assay; type: toxicity, cell-based
[45] = Cmax in dog at 10 mg/kg, po measured for 24 hrs by LC-MS/MS analysis; type: ADME, organism-based, Canis lupus familiaris; conditions: in vivo
[46] = Stability in dog hepatocytes assessed as half life at 1 uM incubated upto 180 mins by LC-MS/MS analysis; type: ADME, cell-based, Canis lupus familiaris, Hepatocyte
[47] = Cmax in Sprague-Dawley rat at 10 mg/kg, po measured for 24 hrs by LC-MS/MS analysis; type: ADME, organism-based; conditions: in vivo
[48] = molecular target: Fibroblast growth factor receptor 3 (Homo sapiens, UniProt P22607, G380R); assay: Inhibition of FGFR3 G380R mutant (unknown origin) by NanoBRET assay
Fibroblast growth factor receptor 3 (Homo sapiens, UniProt P22607, G380R), sequence (P22607 23-806 G380R limits assumed): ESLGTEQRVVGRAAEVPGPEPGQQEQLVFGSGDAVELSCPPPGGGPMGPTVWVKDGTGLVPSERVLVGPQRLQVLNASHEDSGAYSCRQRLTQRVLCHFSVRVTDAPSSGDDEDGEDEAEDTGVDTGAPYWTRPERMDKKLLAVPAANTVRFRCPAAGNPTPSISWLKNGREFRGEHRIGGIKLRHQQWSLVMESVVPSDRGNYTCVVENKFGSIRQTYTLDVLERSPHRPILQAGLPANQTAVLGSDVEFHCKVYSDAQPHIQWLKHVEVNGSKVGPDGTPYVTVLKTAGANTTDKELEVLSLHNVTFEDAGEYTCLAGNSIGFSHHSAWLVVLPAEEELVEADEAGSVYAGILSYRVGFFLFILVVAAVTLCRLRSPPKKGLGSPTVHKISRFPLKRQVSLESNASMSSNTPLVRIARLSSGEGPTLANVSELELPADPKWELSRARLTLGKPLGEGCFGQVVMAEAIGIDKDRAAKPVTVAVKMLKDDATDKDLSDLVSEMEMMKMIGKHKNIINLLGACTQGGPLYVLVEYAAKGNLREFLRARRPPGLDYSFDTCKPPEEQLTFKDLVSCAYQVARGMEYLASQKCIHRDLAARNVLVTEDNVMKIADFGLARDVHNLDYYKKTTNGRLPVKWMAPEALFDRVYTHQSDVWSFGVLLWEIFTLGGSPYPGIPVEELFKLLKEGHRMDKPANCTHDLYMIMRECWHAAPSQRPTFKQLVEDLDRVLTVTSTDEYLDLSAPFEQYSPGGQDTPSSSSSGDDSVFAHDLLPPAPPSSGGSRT

T1 sequence (P22607 whole entry): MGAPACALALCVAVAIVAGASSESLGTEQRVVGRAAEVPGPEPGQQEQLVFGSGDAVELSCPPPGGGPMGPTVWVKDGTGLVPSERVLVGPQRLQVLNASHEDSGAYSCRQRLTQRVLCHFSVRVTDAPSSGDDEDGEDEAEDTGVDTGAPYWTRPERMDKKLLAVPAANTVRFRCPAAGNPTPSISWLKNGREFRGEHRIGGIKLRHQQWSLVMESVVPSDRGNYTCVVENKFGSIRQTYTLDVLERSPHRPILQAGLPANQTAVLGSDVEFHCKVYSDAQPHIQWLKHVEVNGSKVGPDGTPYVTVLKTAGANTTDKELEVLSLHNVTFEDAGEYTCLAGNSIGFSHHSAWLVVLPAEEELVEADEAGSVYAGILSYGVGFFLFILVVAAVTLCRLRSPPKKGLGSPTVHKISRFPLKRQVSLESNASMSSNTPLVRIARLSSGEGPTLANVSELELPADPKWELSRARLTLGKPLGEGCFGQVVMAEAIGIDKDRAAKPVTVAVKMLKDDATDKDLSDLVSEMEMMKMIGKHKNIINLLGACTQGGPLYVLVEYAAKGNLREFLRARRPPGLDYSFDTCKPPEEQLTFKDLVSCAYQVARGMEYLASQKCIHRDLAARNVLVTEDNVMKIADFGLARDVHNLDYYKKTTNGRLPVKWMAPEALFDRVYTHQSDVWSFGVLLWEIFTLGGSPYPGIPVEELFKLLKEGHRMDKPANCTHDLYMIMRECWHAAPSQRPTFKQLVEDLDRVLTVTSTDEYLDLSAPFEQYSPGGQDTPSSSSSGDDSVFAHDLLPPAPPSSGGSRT
Tyrosine-protein kinase JAK3, sequence (P52333 whole entry): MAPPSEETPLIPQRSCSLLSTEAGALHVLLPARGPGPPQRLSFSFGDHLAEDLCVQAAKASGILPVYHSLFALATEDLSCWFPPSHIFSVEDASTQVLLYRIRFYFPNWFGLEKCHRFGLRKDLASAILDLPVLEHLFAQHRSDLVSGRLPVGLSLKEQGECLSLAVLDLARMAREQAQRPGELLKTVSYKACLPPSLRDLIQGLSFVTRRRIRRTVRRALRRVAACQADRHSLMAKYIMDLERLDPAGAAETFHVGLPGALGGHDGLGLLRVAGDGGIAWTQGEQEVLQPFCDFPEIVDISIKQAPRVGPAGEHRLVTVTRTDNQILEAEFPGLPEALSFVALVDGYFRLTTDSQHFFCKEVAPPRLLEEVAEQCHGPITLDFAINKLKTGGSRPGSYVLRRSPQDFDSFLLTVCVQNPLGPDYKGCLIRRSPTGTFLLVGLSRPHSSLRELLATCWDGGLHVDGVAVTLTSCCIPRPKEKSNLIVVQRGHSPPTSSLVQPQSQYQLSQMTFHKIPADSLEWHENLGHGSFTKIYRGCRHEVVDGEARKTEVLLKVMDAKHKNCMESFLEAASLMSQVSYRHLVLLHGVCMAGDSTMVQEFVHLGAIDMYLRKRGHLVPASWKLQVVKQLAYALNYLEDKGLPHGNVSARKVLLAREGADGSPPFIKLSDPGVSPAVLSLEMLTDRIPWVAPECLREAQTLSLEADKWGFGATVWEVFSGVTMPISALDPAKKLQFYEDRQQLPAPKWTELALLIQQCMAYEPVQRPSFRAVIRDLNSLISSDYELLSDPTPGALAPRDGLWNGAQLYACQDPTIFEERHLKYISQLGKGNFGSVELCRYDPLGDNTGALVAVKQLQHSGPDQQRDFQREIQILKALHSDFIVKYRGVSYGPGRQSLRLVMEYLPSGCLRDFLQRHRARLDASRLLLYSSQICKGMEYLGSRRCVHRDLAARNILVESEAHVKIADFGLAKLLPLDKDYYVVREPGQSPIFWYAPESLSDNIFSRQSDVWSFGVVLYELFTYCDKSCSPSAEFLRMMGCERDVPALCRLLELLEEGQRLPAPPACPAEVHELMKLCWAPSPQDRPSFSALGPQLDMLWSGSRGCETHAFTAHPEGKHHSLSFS
Fibroblast growth factor receptor 3 (Homo sapiens, UniProt P22607, V555M), sequence (P22607 23-806 V555M limits assumed): as the sequence (P22607 23-806 G380R limits assumed) above, with R358G, V533M counted along it
Voltage-gated inwardly rectifying potassium channel KCNH2, sequence (Q12809 whole entry): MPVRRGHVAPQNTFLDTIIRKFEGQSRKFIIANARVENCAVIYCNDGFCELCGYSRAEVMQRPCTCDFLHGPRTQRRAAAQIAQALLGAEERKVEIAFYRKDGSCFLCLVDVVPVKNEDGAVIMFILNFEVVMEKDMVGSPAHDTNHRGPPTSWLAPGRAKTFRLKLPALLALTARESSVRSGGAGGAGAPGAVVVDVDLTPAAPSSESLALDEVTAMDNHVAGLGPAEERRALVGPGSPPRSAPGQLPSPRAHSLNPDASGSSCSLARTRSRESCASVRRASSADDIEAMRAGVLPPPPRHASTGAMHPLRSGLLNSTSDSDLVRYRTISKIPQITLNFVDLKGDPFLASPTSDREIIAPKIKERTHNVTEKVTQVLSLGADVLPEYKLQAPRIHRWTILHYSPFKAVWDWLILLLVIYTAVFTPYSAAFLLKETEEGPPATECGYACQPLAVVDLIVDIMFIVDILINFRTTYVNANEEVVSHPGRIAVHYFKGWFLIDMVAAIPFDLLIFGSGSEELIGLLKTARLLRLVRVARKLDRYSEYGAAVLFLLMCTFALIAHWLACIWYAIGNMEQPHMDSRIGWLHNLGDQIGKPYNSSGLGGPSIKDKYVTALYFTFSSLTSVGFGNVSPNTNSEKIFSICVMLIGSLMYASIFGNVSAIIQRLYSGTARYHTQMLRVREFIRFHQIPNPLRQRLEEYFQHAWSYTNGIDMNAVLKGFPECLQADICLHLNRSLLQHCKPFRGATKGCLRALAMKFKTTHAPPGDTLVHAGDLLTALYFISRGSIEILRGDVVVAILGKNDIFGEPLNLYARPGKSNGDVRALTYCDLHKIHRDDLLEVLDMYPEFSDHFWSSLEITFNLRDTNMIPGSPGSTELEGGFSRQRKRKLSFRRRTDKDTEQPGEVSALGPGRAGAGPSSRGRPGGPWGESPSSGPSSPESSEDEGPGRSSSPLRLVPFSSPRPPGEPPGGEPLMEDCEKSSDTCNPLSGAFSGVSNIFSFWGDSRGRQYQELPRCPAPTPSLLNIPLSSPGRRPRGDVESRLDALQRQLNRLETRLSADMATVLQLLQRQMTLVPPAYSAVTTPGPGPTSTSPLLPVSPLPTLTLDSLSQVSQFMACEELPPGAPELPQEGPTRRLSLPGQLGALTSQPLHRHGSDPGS
Fibroblast growth factor receptor 2, sequence (P21802 whole entry, the tested form may be a part): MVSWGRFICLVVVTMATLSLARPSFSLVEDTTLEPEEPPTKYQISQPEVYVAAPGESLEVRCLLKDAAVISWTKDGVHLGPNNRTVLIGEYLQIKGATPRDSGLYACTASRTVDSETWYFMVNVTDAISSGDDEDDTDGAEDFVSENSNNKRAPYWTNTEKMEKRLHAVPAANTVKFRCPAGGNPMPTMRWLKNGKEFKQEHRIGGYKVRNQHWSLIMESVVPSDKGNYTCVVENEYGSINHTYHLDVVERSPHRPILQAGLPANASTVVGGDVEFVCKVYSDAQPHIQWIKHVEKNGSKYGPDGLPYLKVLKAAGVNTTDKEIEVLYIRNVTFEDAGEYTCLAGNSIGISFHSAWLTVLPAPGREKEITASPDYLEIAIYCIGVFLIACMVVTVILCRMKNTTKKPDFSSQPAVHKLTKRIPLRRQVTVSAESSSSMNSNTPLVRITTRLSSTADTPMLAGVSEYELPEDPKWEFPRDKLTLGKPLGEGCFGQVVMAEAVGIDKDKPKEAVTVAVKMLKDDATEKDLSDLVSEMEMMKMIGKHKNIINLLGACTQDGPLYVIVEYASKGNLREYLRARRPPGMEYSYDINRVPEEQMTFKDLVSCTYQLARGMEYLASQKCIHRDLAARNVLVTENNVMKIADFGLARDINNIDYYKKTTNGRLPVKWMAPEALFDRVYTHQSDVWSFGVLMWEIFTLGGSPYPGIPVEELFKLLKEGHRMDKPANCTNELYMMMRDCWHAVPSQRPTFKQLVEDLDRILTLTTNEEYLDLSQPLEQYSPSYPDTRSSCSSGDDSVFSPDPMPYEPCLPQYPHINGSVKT
Fibroblast growth factor receptor 3 (Homo sapiens, UniProt P22607, V555L), sequence (P22607 23-806 V555L limits assumed): as the sequence (P22607 23-806 G380R limits assumed) above, with R358G, V533L counted along it
Fibroblast growth factor receptor 3 (Homo sapiens, UniProt P22607, K650E), sequence (P22607 23-806 K650E limits assumed): as the sequence (P22607 23-806 G380R limits assumed) above, with R358G, K628E counted along it

## C[C@@H](Oc1ccc2[nH]nc(-c3ccc(N4CC5(C4)CN(S(C)(=O)=O)C5)nc3)c2c1)c1c(Cl)cncc1Cl
[1]
  AUC(0-t) at 24 h: 3360 ng·h/mL
[2]
  bioavailability: 39%
[3]
  clearance: 17.5 mL/min/kg
[4]
  Vd: 2.5 L/kg
[5]
  half-life at 1 µM: 1.23 h
[6]
  inhibition in vivo at 12.5 mg/kg: 95%
[7]
  bioavailability: 106%
[8]
  inhibition in vivo at 12.5 mg/kg: 77%
[9]
  Vd: 0.94 L/kg
[10]
  IC50: 11 nM
[11]
  Tmax: 6 h
[12]
  half-life: 1.17 h
[13]
  clearance: 11.1 mL/min/kg
[14]
  half-life at 1 µM: > 1.67 h
[15]
  IC50: 1.6 nM
[16]
  Cmax: 1210 ng/mL
[17]
  IC50: 201 nM
[18]
  IC50: 2 nM
[19]
  IC50: 9 nM
[20]
  IC50: 65 nM
[21]
  Papp: 1 ×10⁻⁶ cm/s
[22]
  solubility thermodynamic: 34 µM (≈ 19 µg/mL)
[23]
  IC50: 205 nM
[24]
  AUC(0-t) at 24 h: 1500 ng·h/mL
[25]
  half-life: 24.8 h
[26]
  Vd: 1.12 L/kg
[27]
  AUC(0-t) at 24 h: 58300 ng·h/mL
[28]
  IC50: 21 nM
[29]
  Papp: 1.1 ×10⁻⁶ cm/s
[30]
  IC50: 36 nM
[31]
  IC50: 1.5 nM
[32]
  IC50: 206 nM
[33]
  clearance: 2.68 mL/min/kg
[34]
  half-life: 5.52 h
[35]
  IC50: 2.8 nM
[36]
  AUC(0-t) at 24 h: 5930 ng·h/mL
[37]
  IC50: 10 nM
[38]
  IC50: 16 nM
[39]
  IC50: 7 nM
[40]
  IC50: 109 nM
[41]
  Tmax: 6 h
[42]
  CLint scaled at 1 µM: 14 mL/min/kg
[43]
  half-life: 1.93 h
[44]
  IC50: 9300 nM
[45]
  Cmax: 3090 ng/mL
[46]
  half-life at 1 µM: > 1.67 h
[47]
  Cmax: 802 ng/mL
[48]
  IC50: 21 nM
